Test results as given in publication PMC5442318, “Hundreds of dual-stage antimalarial molecules discovered by a functional gametocyte screen” (Nature Communications, 2017).

What was measured:
[1] = tested on: P. falciparum female gametes; assay: Pf FGAA with compounds added 30 min after triggering gametocyte activation (gamete-targeting); assay type: cell-based, Plasmodium falciparum NF54; conditions: Plasmodium falciparum; 0h incubation time
[2] = tested on: P. falciparum male gametocytes (exflagellation); assay: Exflagellation assay (male gametocytes); assay type: cell-based, Plasmodium falciparum; design: Exflagellation Inhibition %: concentration or dose not given beside the values
Method: Figure 5 Exflagellation inhibition by six TCAMS compounds. Stage V gametocyte cultures were exposed to 2 μM of TCMDC-141070 and 1 μM of the five remaining compounds for 48 h. The percentage inhibition was determined compared to DMSO-treated controls. Compounds were then progressed into SMFA to further determine the transmission blocking in mosquitoes. Each bar represents mean value of two (TCMDC-125345, TCMDC-141698, TCMDC-123767, TCMDC-141154) or three (TCMDC-141070, TCMDC-124559) independent replicates with s.d.
Exflagellation was measured as previously reported[24] with minor modifications. Using 5 ml of day-14 gametocyte cultures, parasites were incubated with the corresponding concentration for each compound in six-well plates at 37 °C (3% O2, 5% CO2 and 92% N2). After 48 h incubation, a 200 μl sample was spun down in a microfuge, the supernatant was carefully removed and the pellet resuspended in 15 μl of pre-warmed ookinete medium. Parasites were placed in Fast-Read disposable haemocytometer slides and, after 15 min at room temperature (22 °C), exflagellation centres per field were counted under × 10 objective.

[3] = tested on: P. falciparum oocysts in Anopheles stephensi mosquitoes; assay: Standard membrane feeding assay (SMFA), indirect format; assay type: cell-based, Plasmodium falciparum; design: Oocyst Reduction Intensity %: concentration or dose not given beside the values; conditions: for Block in transmission (%) (reduction in oocyst prevalence): 1 or 2 μM (Pf FGAA IC90)
Method: To validate the transmission-blocking potential of the TCAMS hits and assess the predictive value of the Pf FGAA as an in vitro high throughput surrogate of full mosquito feeding, the ‘gold-standard' SMFA was performed. Six compounds showing different biological profiles, belonging to four distinct chemical clusters, were selected based on their potencies in the Pf FGAA (Supplementary Data 1, Table 1). For each compound, inhibition of exflagellation of male gametocytes was measured. […] Compounds were tested in duplicate in 2–3 independent experiments in the indirect format of the assay, that is, gametocytes were exposed to the drug for 48 h before mosquito feeding to replicate a drug exposure time equivalent to that used in the Pf FGAA. […] By contrast, TCMDC-124559 reduced prevalence and intensity by <20% (Fig. 6a,b, respectively).
Day-14 gametocyte cultures were plated in pre-warmed six-well-plates (5 ml per well) and were exposed to the compounds (1 μM or 2 μM final concentration) for 48 h at 37 °C (3% O2, 5% CO2 and 92% N2). Within this incubation time, 3 ml of media were removed after the first 24 h and replenished with the same volume of fresh media with compound added to obtain the required final concentration. After 48 h of total exposure, cultures were centrifuged at 2,500 g for 3 min at 37 °C, diluted 1:1 with 100% packed volume of fresh erythrocytes and finally formulated as artificial mosquito blood meals at 50% haematocrit with pre-warmed human serum. All steps were performed at 37 °C to avoid gametocyte activation. Four- to six-day old female Anopheles stephensi mosquitoes (GlaxoSmithKline Insectary) were fed for 30 min via Parafilm membrane attached to glass feeders (12831283, Fisher Scientific) connected to a 37 °C circulating water bath. Fed mosquitoes were maintained in an incubator at 27 °C and 75% relative humidity with 12 h light/dark cycles. Seven to eight days post-feeding, mosquitoes with fully developed ovaries were dissected for midguts, which were rinsed in a 0.2% mercury-dibromofluorescein (63869, Fluka) in water solution for 10 min. Total number of oocysts in individual midguts were counted using a light microscope (DM2000, Leica) under a × 10 objective. The percentage of block in transmission (reduction in prevalence) and the percentage of reduction in mean oocyst intensity were calculated after normalizing to the control DMSO-treated sample. Two to three independent SMFA experiments were performed and two internal duplicates of 40 mosquitoes each were used per compound. Mean oocyst intensities were not less than two oocysts per mosquito and the prevalence of infection ranged from 70 to 90% in the fed mosquito control groups. See complete experimental data set in Supplementary Table 1 and Supplementary Note 1.

HepG2 cells = assay: HepG2 cytotoxicity assay; assay type: cell-based
Summary of the method: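 Post-incubation CellTiter-Glo luminescence; 30 min RT equilibration, 10 min RT stabilization before reading.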

[4] = Intrinsic clearance assay; assay type: in vitro ADME; conditions: mouse liver microsomes, 0.5 μM
Method: Intrinsic clearance (CLi) values were determined in mouse liver microsomes (M1000, XenoTech). Test compounds (final concentration 0.5 μM) were incubated at 37 °C for 45 min in 50 mM potassium phosphate buffer (pH 7.4) containing 0.5 mg microsomal protein per ml. The reaction was started by addition of cofactor NADPH ([…], Sigma) at 1 mM final concentration. The final concentration of organic solvent (DMSO) was limited to 0.25% of the final volume. At 0, 5, 15, 30, and 45 min, an aliquot (100 μl) was taken, quenched with acetonitrile containing an appropriate internal standard, and analysed by HPLC-MS/MS (Applied Biosystems). CLi was determined from the first-order elimination constant by nonlinear regression, corrected for the volume of the incubation and assuming […] mouse protein per g liver. Values for CLi were expressed as ml min^-1 per g liver.

[5] = 48 h exposure, 2 μM TCMDC-141070, 1 μM other compounds, vs DMSO, mean of 2-3 replicates
[6] = 48 h exposure before feeding, mean of 2-3 experiments
[7] = HepG2 TOX50 versus Pf FGAA IC50

| SMILES | IC50 [1] | Inhibition of exflagellation (%) [2, 5] | Exflagellation Inhibition % ([2]; Expt 1) | Exflagellation Inhibition % ([2]; Expt 2) | Block in transmission (%) (reduction in oocyst prevalence) [3, 6] | Block in Transmission % ([3]; Expt 1) | Mean Oocyst Intensity in Test Compound ([3]; Expt 1) | Oocyst Reduction Intensity % ([3]; Expt 1) | Prevalence of Infection in Test Compound ([3]; Expt 1) | Block in Transmission % ([3]; Expt 2) | Mean Oocyst Intensity in Test Compound ([3]; Expt 2) | Oocyst Reduction Intensity % ([3]; Expt 2) | Prevalence of Infection in Test Compound ([3]; Expt 2) | Tox50 (HepG2 cells; HepG2, 48 h) | Selectivity ratio (HepG2 cells; [7]) | HepG2 cells mean TOX50 (HepG2 cells; HepG2 cells; mean) | Block in Transmission % ([3]; Expt 3) | Mean Oocyst Intensity in Test Compound ([3]; Expt 3) | Selectivity ratio (HepG2 cells; HepG2 TOX50 / Pf FGAA IC50) | HepG2 cells mean TOX50 (HepG2 cells; mean; HepG2 cells) | also measured |
| --- | --- | --- | --- | --- | --- | --- | --- | --- | --- | --- | --- | --- | --- | --- | --- | --- | --- | --- | --- | --- | --- |
| FC(F)(F)c1cnc(Sc2nnc(-c3ccncc3)o2)c(Cl)c1 [TCMDC-123767] | > 20 µM | 88% | 88% | 88% | 83% | 83% | 0.1 | 97% | 13.26 | 85% | 0.1 | 97% | 13.2 | 100 µM | >625 | >100 µM | – | – | – | – | HepG2 cells TOX50 (HepG2 cells; HepG2 cells): >100 µM; in vitro microsome clearance [4]: 7.9 ml min^−1 per g liver |
| CC(C)(CNC(=O)[C@H]1CCCCN1)c1nc(-c2ccc(Cl)c(O)c2)c(-c2ccncc2)[nH]1 [TCMDC-141070] | 1.77 µM | – | 75% | – | – | 100% | 0 | 100% | 0 | 78% | 0.2 | 92% | 15.4 | 28.96 µM | – | – | 100% | 0 | 54.30 | 28.96 µM | inhibition at 2 µM ([2]; Plasmodium falciparum, 48 h exposure, 2 μM TCMDC-141070, 1 μM other compounds, vs DMSO, mean of 2-3 replicates): 99%; Oocyst Reduction Intensity % ([3]; Expt 3): 100%; Prevalence of Infection in Test Compound ([3]; Expt 3): 0 |
| CC1Cc2ccccc2N1S(=O)(=O)c1cccc(C(=O)Nc2nc(-c3ccccn3)cs2)c1 (stereo not shown) [TCMDC-124559] | – | 30% | 28% | 0% | < 20% | 5% | 4.1 | 24% | 74.29 | 0% | 2.5 | 0% | 70 | >100 µM | 146.27 | 50.12 µM | 13% | 2.8 | – | – | Exflagellation Inhibition % ([2]; Expt 3): 60%; reduction in oocyst intensity ([3]; 48 h exposure before feeding, 1 or 2 μM, mean of 2-3 experiments): < 20%; Oocyst Reduction Intensity % ([3]; Expt 3): 39%; Prevalence of Infection in Test Compound ([3]; Expt 3): 79.17 |
| COc1cc(OC)cc(C(=O)Nc2nc(-c3ccccn3)cs2)c1 [TCMDC-125345] | 4.95 µM | 50% | 47% | – | 60% | 54% | 0.7 | 88% | 35.97 | 58% | 1.0 | 83% | 38.22 | 39.82 µM | 111.27 | 39.82 µM | – | – | – | – | – |
| NCC1(c2nc(-c3ccc(Cl)c(O)c3)c(-c3ccncc3)[nH]2)CCCCC1 [TCMDC-141154] | 0.25 µM | 97% | 97% | 97% | 93% | 93% | 0.1 | 99% | 5.46 | 93% | 0.1 | 98% | 6.16 | 11.9 µM | – | – | – | – | 56.01 | 11.90 µM | – |
| Cc1ccc(Cn2nc(Cl)c(N3CCNCC3)cc2=O)cc1NC(=O)Nc1ccc(-c2ccccc2)cc1 [TCMDC-141698] | 1.93 µM | 84% | – | 87% | 82% | 82% | 0.2 | 97% | 14.04 | 90% | 0.2 | 97% | 8.8 | 4.79 µM | – | – | – | – | 10.79 | 4.79 µM | – |
